In the assay the target is Genome polyprotein (West Nile virus, UniProt P06935). Nature of the assay: inhibitors of WNV NS2B-NS3 protease, dose response, biochemical, confirmation (AID 653).

Counter-ions that a name gives are not always drawn. Where only a bound is given, the exact number is not on record here.

Genome polyprotein, sequence (P06935 1371-1501 limits assumed): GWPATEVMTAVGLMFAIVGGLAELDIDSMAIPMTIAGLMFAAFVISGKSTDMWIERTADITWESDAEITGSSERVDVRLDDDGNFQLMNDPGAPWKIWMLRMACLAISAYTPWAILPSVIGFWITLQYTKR
Genome polyprotein, sequence (P06935 1502-2120 limits assumed): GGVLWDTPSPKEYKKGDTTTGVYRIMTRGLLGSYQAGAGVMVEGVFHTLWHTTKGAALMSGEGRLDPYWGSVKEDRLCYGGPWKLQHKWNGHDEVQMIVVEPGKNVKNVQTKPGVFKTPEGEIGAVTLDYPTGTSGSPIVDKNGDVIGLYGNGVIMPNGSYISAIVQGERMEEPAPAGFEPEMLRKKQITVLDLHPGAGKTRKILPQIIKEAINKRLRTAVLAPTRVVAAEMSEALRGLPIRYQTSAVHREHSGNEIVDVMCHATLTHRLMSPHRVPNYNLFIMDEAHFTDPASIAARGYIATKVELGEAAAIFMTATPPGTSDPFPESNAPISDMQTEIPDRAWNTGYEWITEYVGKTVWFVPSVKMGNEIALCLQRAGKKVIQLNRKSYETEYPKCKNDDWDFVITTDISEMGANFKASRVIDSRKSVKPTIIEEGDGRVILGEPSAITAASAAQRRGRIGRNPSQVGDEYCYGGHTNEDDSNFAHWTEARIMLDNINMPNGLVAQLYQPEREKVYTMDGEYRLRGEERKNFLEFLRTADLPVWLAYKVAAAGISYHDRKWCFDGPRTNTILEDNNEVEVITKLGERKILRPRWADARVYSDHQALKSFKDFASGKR

Take `COc1cc(C)nc(Oc2ccc(OCCOc3ccc(C)cc3)nn2)n1` [4-methoxy-6-methyl-2-[6-[2-(4-methylphenoxy)ethoxy]pyridazin-3-yl]oxy-pyrimidine]: the 50% inhibitory concentration (IC50) (usually the concentration at which inhibition is half-maximal) was above 50 µM.
The value for `Cc1cccc(N(C)C(=S)Oc2ccc3ccccc3c2)c1` [MLS000028526] was above 50 µM; that for `COc1ccccc1-n1c(SCC(=O)N2CCOCC2)nc(O)c(Cc2ccccc2)c1=O` was above 50 µM; that for `OC(CNCCCN1CCCCC1)COc1ccccc1` (stereo not given) [1-phenoxy-3-(3-piperidin-1-ylpropylamino)propan-2-ol;hydrochloride] was above 50 µM.
As to `COc1ccc(S(=O)(=O)n2nc(OC(=O)c3cccs3)cc2N)cc1` [2-thiophenecarboxylic acid [5-amino-1-(4-methoxyphenyl)sulfonyl-3-pyrazolyl] ester], the IC50 came to 0.11 µM.
The value for `CCOC(=O)C1=C[C@]2(CC)CCCN3CCc4c(n1c1ccccc41)[C@@H]32` was above 50 µM; that for `CC(C)NCc1c(O)c(Br)cc2oc3c(c12)CCCC3` [3-bromanyl-1-[(propan-2-ylamino)methyl]-6,7,8,9-tetrahydrodibenzofuran-2-ol] was above 50 µM.
The value for `COc1ccc(S(=O)(=O)n2nc(OC(=O)c3ccccc3)cc2N)cc1` [Benzoic acid 5-amino-1-(4-methoxy-benzenesulfonyl)-1H-pyrazol-3-yl ester] was 0.105 µM.
Next, `CCOC(=O)C(CC(=O)O)N1CCCCC1` (stereo not given) [4-ethoxy-4-keto-3-piperidino-butyric acid]: above 50 µM; `O=C(OCCN1C(=O)c2ccccc2C1=O)c1cc(S(=O)(=O)N2CCOCC2)ccc1F` [2-(1,3-dioxoisoindol-2-yl)ethyl 2-fluoro-5-morpholin-4-ylsulfonylbenzoate]: above 50 µM.
